Patent publication US5508385A, “Tripeptide derivatives containing pyroglutamic acid residue” (Nitto Boseki Co., Ltd., priority 1990, dated 1996)
Structures can show the parent of a compound that is named as a salt. Where a SMILES comes first, the peptide text is derived from it. [ ]: non-standard residue; d: D form. pGlu = O=C1CC[C@@H](C(=O)O)N1

The compounds below were run against plasmin (Homo sapiens, UniProt P00747) (assay: Inhibitory activity against plasmin (synthetic substrate PS-994)). Conditions: Table 3; substrate PS-994, pH 7.8, 37° C.
Chain of plasmin (P00747 97-810): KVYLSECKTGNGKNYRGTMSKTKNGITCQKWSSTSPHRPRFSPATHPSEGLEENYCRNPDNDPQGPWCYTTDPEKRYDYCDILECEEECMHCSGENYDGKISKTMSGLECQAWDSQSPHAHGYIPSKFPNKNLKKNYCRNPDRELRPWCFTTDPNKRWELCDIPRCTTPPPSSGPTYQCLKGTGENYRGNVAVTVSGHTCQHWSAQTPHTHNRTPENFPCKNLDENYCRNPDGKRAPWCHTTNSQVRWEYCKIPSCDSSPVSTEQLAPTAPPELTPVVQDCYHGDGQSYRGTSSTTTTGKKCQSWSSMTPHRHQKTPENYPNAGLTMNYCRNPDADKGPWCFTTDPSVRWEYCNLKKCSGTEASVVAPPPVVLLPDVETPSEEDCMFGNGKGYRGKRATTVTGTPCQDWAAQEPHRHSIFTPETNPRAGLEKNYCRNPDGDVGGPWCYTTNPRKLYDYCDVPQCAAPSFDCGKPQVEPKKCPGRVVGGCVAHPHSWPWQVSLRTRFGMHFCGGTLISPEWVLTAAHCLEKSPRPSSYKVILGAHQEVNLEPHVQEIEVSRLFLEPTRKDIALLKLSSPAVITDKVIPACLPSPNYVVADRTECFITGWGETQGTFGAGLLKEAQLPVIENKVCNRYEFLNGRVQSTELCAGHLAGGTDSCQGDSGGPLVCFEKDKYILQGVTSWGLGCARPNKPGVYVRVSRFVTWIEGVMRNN
Format: biochemical
Experimental: As a stopping (color forming) solution, there was used the one from the kit of Sankyo Color Test in the case of CHA type substrate. Enzyme reactions were carried out at 37° C.
To 0.4 ml of buffer solution (150 mM sodium chloride aqueous solution containing 100 mM Tris, pH 7.8) is added an aqueous solution (0.1 ml) of the inhibitor having various concentrations. The mixture is heated for 5 minutes. After 0.2 ml of plasmin solution is added thereto, the mixture is reacted for 5 minutes. […] After completion of the reaction, 2.0 ml of the stopping color forming solution is added.

Q: `N=C(N)NCCC[C@@H](C=O)NC(=O)[C@@H]1CCCN1C(=O)[C@@H]1CCC(=O)N1` [Example 13, L-pyroglutamyl-L-prolyl-L-argininal 1/2 sulfate] ([pGlu]-Pro-Arg-aldehyde) was tested. Which IC50 did it give?
A: 1.4 µM

Q: Which IC50 does the source give for “N-benzyloxycarbonyl-D-pyroglutamyl-L-leucyl-L-argininal hydrochloride [Example 7]” here?
A: 2.8 µM

Q: “N-benzyloxycarbonyl-D-pyroglutamyl-L-phenylalanyl-L-argininal hydrochloride [Example 9]” was tested. Which IC50 did it give?
A: 1.3 µM

Q: For “N-benzyloxycarbonyl-D-pyroglutamyl-L-prolyl-L-argininal hydrochloride [Example 6]”, which IC50 is on record?
A: 4.6 µM

Q: For “N-benzyloxycarbonyl-L-pyroglutamyl-L-alanyl-L-argininal hydrochloride [Example 2]”, which IC50 is on record?
A: 7.2 µM

Q: How did the IC50 turn out when “N-benzyloxycarbonyl-L-pyroglutamyl-L-phenylalanyl-L-argininal hydrochloride [Example 3]” was run?
A: 1.1 µM

Q: With “N-benzyloxycarbonyl-L-pyroglutamyl-L-prolyl-L-argininal hydrochloride [Example 1]” as the compound, how does the IC50 read?
A: 3.2 µM

The compounds below were run against thrombin (Bos taurus, UniProt P00735) (assay: Inhibitory activity against thrombin (synthetic substrate PS-915)). Conditions: Table 3; substrate PS-915, pH 8.5, 37° C.
Format: biochemical
Description: (§1) As synthetic substrates for examining the activity of inhibitor for inhibiting digestion of the substrates with enzyme, there were used PS-994 (H-D-Lys(Tos)-Phe-Lys-CHA.2HCl; manufactured by Nitto Boseki Co., Ltd.) for plasmin, PS-915 (H-D-Phe-Pro-Arg-CHA.2HCl; manufactured by Nitto Boseki Co., Ltd.) for thrombin and trypsin; PS-2000 (Z-D-Lys(HCO)-Gly-Arg-CHA.HCl; manufactured by Nitto Boseki Co., Ltd.) for factor Xa; S-2302 (H-D-Pro-Phe-Arg-pNA; manufactured by Kabi Co., Ltd.) for kallikrein; and [drawing 2] manufactured by Nitto Boseki Co., Ltd.) for urokinase.
(§2) As plasmin, thrombin, trypsin, factor Xa, kallikrein and urokinase, there were used 0.3 CU/ml of standard plasmin from Sankyo Color Test α2 -PI Measurement Kit, 1.2 NIH U/ml of thrombin from Sankyo Color Test AT-III Measurement Kit, 2 μg/ml of trypsin of Code 3703 of Worthington, 0.25 U/ml of human factor Xa manufactured by Boehringer Mannheim, 0.12 U/ml of human serum kallikrein manufactured by Kabi Co., Ltd. and 1000 U/ml of Urokinase 60000 (60,000 U/vial) manufactured by Mochida Pharmaceutical Co., Ltd., respectively. As a stopping (color forming) solution, there was used the one from the kit of Sankyo Color Test in the case of CHA type substrate. Enzyme reactions were carried out at 37° C.
To 0.4 ml of buffer solution (150 mM sodium chloride aqueous solution containing 150 mM Tris, pH 8.5) is added an aqueous solution (0.1 ml) of the inhibitor having various concentrations. The mixture is heated for 5 minutes. After 0.2 ml of thrombin solution is added thereto, the mixture is reacted for 5 minutes. Then 0.1 ml of PS-915 solution (10 mM) is added followed by reaction for 5 minutes. Thereafter, 2 ml of the stopping color forming solution is added. After allowing to stand for 10 minutes, absorbance is measured at 700 nm and IC50 is determined according to the method described above.

Q: For `N=C(N)NCCC[C@@H](C=O)NC(=O)[C@@H]1CCCN1C(=O)[C@@H]1CCC(=O)N1` [Example 13, L-pyroglutamyl-L-prolyl-L-argininal 1/2 sulfate] ([pGlu]-Pro-Arg-aldehyde), which IC50 is on record?
A: 22 µM

Q: With “N-benzyloxycarbonyl-D-pyroglutamyl-L-leucyl-L-argininal hydrochloride [Example 7]” as the compound, how does the IC50 read?
A: > 100 µM

Q: How did the IC50 turn out when “N-benzyloxycarbonyl-D-pyroglutamyl-L-phenylalanyl-L-argininal hydrochloride [Example 9]” was run?
A: > 100 µM

Q: Which IC50 does the source give for “N-benzyloxycarbonyl-D-pyroglutamyl-L-prolyl-L-argininal hydrochloride [Example 6]” here?
A: 22 µM

Q: “N-benzyloxycarbonyl-L-pyroglutamyl-L-alanyl-L-argininal hydrochloride [Example 2]” was tested. Which IC50 did it give?
A: 5.9 µM

Q: With “N-benzyloxycarbonyl-L-pyroglutamyl-L-phenylalanyl-L-argininal hydrochloride [Example 3]” as the compound, how does the IC50 read?
A: 35 µM

Q: Which IC50 does the source give for “N-benzyloxycarbonyl-L-pyroglutamyl-L-prolyl-L-argininal hydrochloride [Example 1]” here?
A: 0.056 µM

The compounds below were run against T1, trypsin (Bos taurus, UniProt P00760) (assay: Inhibitory activity against trypsin (synthetic substrate PS-915)). Conditions: Table 3; substrate PS-915, pH 8.0, 37° C.
T1 construct: purchased Worthington Code 3703
T1 sequence (P00760 24-246): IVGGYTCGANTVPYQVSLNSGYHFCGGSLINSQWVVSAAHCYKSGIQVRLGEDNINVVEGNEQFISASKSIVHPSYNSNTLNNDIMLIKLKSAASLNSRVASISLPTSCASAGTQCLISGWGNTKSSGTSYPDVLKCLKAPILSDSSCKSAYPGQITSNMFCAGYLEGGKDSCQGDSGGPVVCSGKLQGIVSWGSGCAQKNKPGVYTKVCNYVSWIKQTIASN
Format: biochemical
Description: as §1, §2
To 0.5 ml of buffer solution (150 mM sodium chloride aqueous solution containing 150 mM Tris, pH 8.0) is added 0.1 ml of an aqueous solution of the inhibitor. After the mixture is heated for 5 minutes, 0.1 ml of trypin solution is added thereto. Further 0.1 ml of PS-915 solution (10 mM) is added followed by reaction for 5 minutes. Thereafter, 2 ml of the stopping color forming solution [containing 2.5 mg/ml of soybean trypsin inhibitor (manufactured by Sigma Co., No. T-9003)] is added. After allowing to stand for 10 minutes, absorbance is measured at 700 nm and IC50 is determined according to the method described above.

Q: How did the IC50 turn out when `N=C(N)NCCC[C@@H](C=O)NC(=O)[C@@H]1CCCN1C(=O)[C@@H]1CCC(=O)N1` [Example 13, L-pyroglutamyl-L-prolyl-L-argininal 1/2 sulfate] ([pGlu]-Pro-Arg-aldehyde) was run?
A: 0.02 µM

Q: Which IC50 does the source give for “N-benzyloxycarbonyl-D-pyroglutamyl-L-leucyl-L-argininal hydrochloride [Example 7]” here?
A: 0.43 µM

Q: With “N-benzyloxycarbonyl-D-pyroglutamyl-L-phenylalanyl-L-argininal hydrochloride [Example 9]” as the compound, how does the IC50 read?
A: 1 µM

Q: With “N-benzyloxycarbonyl-D-pyroglutamyl-L-prolyl-L-argininal hydrochloride [Example 6]” as the compound, how does the IC50 read?
A: 0.062 µM

Q: Which IC50 does the source give for “N-benzyloxycarbonyl-L-pyroglutamyl-L-alanyl-L-argininal hydrochloride [Example 2]” here?
A: 0.0074 µM

Q: For “N-benzyloxycarbonyl-L-pyroglutamyl-L-phenylalanyl-L-argininal hydrochloride [Example 3]”, which IC50 is on record?
A: 0.069 µM

Q: Which IC50 does the source give for “N-benzyloxycarbonyl-L-pyroglutamyl-L-prolyl-L-argininal hydrochloride [Example 1]” here?
A: 0.0062 µM

The compounds below were run against T2, human serum kallikrein (Homo sapiens, UniProt P03952) (assay: Inhibitory activity against kallikrein (synthetic substrate S-2302)). Conditions: Table 2; substrate S-2302, pH 8.0, 37° C.; read-out: IC50 of Known Compound, Kallikrein.
T2 construct: purchased Kabi Co., Ltd
T2 sequence (P03952 391-638 limits assumed): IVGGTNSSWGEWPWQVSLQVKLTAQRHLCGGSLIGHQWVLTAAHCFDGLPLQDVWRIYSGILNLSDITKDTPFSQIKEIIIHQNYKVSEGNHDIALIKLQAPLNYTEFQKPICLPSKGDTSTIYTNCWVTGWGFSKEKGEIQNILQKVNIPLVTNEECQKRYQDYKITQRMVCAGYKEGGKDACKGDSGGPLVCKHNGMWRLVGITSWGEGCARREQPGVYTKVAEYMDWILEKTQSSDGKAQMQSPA
T2 sequence (P03952 20-390 partner limits assumed): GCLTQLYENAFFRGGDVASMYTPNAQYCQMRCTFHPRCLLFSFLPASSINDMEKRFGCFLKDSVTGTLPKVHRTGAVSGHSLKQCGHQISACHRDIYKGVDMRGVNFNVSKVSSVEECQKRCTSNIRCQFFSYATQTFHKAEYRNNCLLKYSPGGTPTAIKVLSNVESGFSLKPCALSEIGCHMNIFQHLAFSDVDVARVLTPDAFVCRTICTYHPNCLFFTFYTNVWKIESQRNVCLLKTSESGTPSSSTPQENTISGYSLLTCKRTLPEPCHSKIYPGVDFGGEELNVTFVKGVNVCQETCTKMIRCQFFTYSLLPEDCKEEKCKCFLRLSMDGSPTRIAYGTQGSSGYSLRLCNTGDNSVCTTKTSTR
Format: biochemical
Description: as §1, §2
To 0.4 ml of buffer solution (150 mM sodium chloride aqueous solution containing 50 mM Tris, pH 8.0) is added 0.1 ml of an aqueous solution of the inhibitor. After the mixture is heated for 5 minutes, 0.1 ml of kallikrein solution (containing 0.5% bovine serum albumin, No. A-8022 manufactured by Sigma Co.) is added thereto followed by reaction for 5 minutes. Further 10 mM S-2302 aqueous solution (0.1 ml) is added thereto. After reacting for 5 minutes, 5 ml of 20% acetic acid aqueous solution is added to terminate the reaction. Absorbance is measured at 405 nm and IC50 is determined according to the method described above.

Q: `CC(=O)N[C@@H](CC(C)C)C(=O)N[C@@H](CC(C)C)C(=O)N[C@H](C=O)CCCNC(=N)N` [Example A1, acetyl-L-leucyl-L-leucyl-L-argininal, reference compound] was tested. Which IC50 did it give?
A: 6.9 µM

Same assay, conditions: Table 3; substrate S-2302, pH 8.0, 37° C.; read-out: IC50, kallikrein (Table 3)

Q: `N=C(N)NCCC[C@@H](C=O)NC(=O)[C@@H]1CCCN1C(=O)[C@@H]1CCC(=O)N1` [Example 13, L-pyroglutamyl-L-prolyl-L-argininal 1/2 sulfate] ([pGlu]-Pro-Arg-aldehyde) was tested. Which IC50 did it give?
A: 5.5 µM

Q: Which IC50 does the source give for “N-benzyloxycarbonyl-D-pyroglutamyl-L-leucyl-L-argininal hydrochloride [Example 7]” here?
A: 3.1 µM

Q: Which IC50 does the source give for “N-benzyloxycarbonyl-D-pyroglutamyl-L-phenylalanyl-L-argininal hydrochloride [Example 9]” here?
A: 0.87 µM

Q: “N-benzyloxycarbonyl-D-pyroglutamyl-L-prolyl-L-argininal hydrochloride [Example 6]” was tested. Which IC50 did it give?
A: 13 µM

Q: For “N-benzyloxycarbonyl-L-pyroglutamyl-L-alanyl-L-argininal hydrochloride [Example 2]”, which IC50 is on record?
A: 7.8 µM

Q: How did the IC50 turn out when “N-benzyloxycarbonyl-L-pyroglutamyl-L-phenylalanyl-L-argininal hydrochloride [Example 3]” was run?
A: 0.42 µM

Q: With “N-benzyloxycarbonyl-L-pyroglutamyl-L-prolyl-L-argininal hydrochloride [Example 1]” as the compound, how does the IC50 read?
A: 5 µM

Each compound was assayed against T3, human factor Xa (Homo sapiens, UniProt P00742) (assay: Inhibitory activity against factor Xa (synthetic substrate PS-2000)). Conditions: Table 3; substrate PS-2000, pH 8.5, 37° C.
T3 construct: purchased Boehringer Mannheim
T3 sequence (P00742 235-488 limits assumed): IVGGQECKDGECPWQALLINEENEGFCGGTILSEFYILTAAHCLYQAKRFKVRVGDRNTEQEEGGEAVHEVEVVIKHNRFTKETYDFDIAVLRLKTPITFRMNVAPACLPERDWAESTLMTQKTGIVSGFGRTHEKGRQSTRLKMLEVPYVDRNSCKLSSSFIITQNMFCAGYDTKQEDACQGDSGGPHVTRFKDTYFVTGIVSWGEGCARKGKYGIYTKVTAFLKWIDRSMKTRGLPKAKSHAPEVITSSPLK
T3 sequence (P00742 41-179 partner limits assumed): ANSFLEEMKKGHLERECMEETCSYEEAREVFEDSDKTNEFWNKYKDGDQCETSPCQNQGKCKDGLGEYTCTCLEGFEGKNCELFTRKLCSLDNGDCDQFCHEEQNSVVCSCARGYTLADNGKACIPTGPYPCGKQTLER
Format: biochemical
Description: as §1, §2
To 0.3 ml of buffer solution (150 mM sodium chloride aqueous solution containing 50 mM Tris, pH 8.5) is added 0.1 ml of an aqueous solution of the inhibitor having various concentrations. After the mixture is heated for 5 minutes, 0.1 ml of factor Xa solution (150 mM sodium chloride aqueous solution containing 50 mM Tris and 20 mM calcium chloride, pH 8.5) is added thereto and the mixture is reacted for 5 minutes. Further 5% polyvinylpyrrolidone solution (0.1 ml) containing 10 mM PS-2000 is added followed by reaction for 5 minutes. Thereafter, 2 ml of the stopping color forming solution is added. After allowing to stand for 10 minutes, absorbance is measured at 700 nm and IC50 is determined according to the method described above.

Q: `N=C(N)NCCC[C@@H](C=O)NC(=O)[C@@H]1CCCN1C(=O)[C@@H]1CCC(=O)N1` [Example 13, L-pyroglutamyl-L-prolyl-L-argininal 1/2 sulfate] ([pGlu]-Pro-Arg-aldehyde) was tested. Which IC50 did it give?
A: 13 µM

Q: How did the IC50 turn out when “N-benzyloxycarbonyl-D-pyroglutamyl-L-leucyl-L-argininal hydrochloride [Example 7]” was run?
A: 4.7 µM

Q: Which IC50 does the source give for “N-benzyloxycarbonyl-D-pyroglutamyl-L-phenylalanyl-L-argininal hydrochloride [Example 9]” here?
A: 0.72 µM

Q: With “N-benzyloxycarbonyl-D-pyroglutamyl-L-prolyl-L-argininal hydrochloride [Example 6]” as the compound, how does the IC50 read?
A: 5 µM

Q: How did the IC50 turn out when “N-benzyloxycarbonyl-L-pyroglutamyl-L-alanyl-L-argininal hydrochloride [Example 2]” was run?
A: 0.52 µM

Q: For “N-benzyloxycarbonyl-L-pyroglutamyl-L-phenylalanyl-L-argininal hydrochloride [Example 3]”, which IC50 is on record?
A: 0.59 µM

Q: For “N-benzyloxycarbonyl-L-pyroglutamyl-L-prolyl-L-argininal hydrochloride [Example 1]”, which IC50 is on record?
A: 0.36 µM

The compounds below were run against T4, urokinase (Homo sapiens, UniProt P00749) (assay: Inhibitory activity against urokinase (synthetic substrate MUK-34)). Conditions: Table 3; substrate MUK-34, pH 8.20, 37° C.
T4 construct: purchased Mochida Pharmaceutical Co., Ltd. Urokinase 60000 (60,000 U/vial)
Format: biochemical
Description: as §1, §2
To 0.3 ml of buffer solution (150 mM sodium chloride aqueous solution containing 50 mM Tris, pH 8.20) is added 0.1 ml of an aqueous solution of the inhibitor having various concentrations. After the mixture is heated for 5 minutes, 0.1 ml of urokinase solution (150 mM sodium chloride aqueous solution containing 50 mM Tris and 0.1% BSA, pH 8.20) is added thereto and the mixture is reacted for 5 minutes. Then 10 mM MUK-34 aqueous solution (0.1 ml) is added to the mixture. After reacting for 5 minutes, 10% acetic acid aqueous solution (2.0 ml) is added to terminate the reaction. Absorbance is measured at 405 nm and IC50 is determined according to the method described above.

Q: How did the IC50 turn out when `N=C(N)NCCC[C@@H](C=O)NC(=O)[C@@H]1CCCN1C(=O)[C@@H]1CCC(=O)N1` [Example 13, L-pyroglutamyl-L-prolyl-L-argininal 1/2 sulfate] ([pGlu]-Pro-Arg-aldehyde) was run?
A: 0.68 µM

Q: Which IC50 does the source give for “N-benzyloxycarbonyl-D-pyroglutamyl-L-leucyl-L-argininal hydrochloride [Example 7]” here?
A: 30 µM

Q: Which IC50 does the source give for “N-benzyloxycarbonyl-D-pyroglutamyl-L-phenylalanyl-L-argininal hydrochloride [Example 9]” here?
A: 40 µM

Q: Which IC50 does the source give for “N-benzyloxycarbonyl-D-pyroglutamyl-L-prolyl-L-argininal hydrochloride [Example 6]” here?
A: 1.1 µM

Q: “N-benzyloxycarbonyl-L-pyroglutamyl-L-alanyl-L-argininal hydrochloride [Example 2]” was tested. Which IC50 did it give?
A: 7.6 µM

Q: How did the IC50 turn out when “N-benzyloxycarbonyl-L-pyroglutamyl-L-phenylalanyl-L-argininal hydrochloride [Example 3]” was run?
A: 76 µM

Q: With “N-benzyloxycarbonyl-L-pyroglutamyl-L-prolyl-L-argininal hydrochloride [Example 1]” as the compound, how does the IC50 read?
A: 22 µM
